{"source": "paper PMC9037180", "about": "“Ligand-based design and synthesis of N'-Benzylidene-3,4-dimethoxybenzohydrazide derivatives as potential antimicrobial agents; evaluation by in vitro, in vivo, and in silico approaches with SAR studies” (Journal of Enzyme Inhibition and Medicinal Chemistry, 2022)", "key": {"E. coli ATCC 25922": {"test_system": "E. coli ATCC 25922", "assay": "Minimal inhibitory concentration (MIC), broth dilution", "conditions": "Escherichia coli, ATCC25922"}, "[1]": {"test_system": "S. typhi clinical isolate", "assay": "Minimal inhibitory concentration (MIC), broth dilution", "type": "cell-based", "conditions": "Salmonella enterica, TYPHI"}, "P. aeruginosa ATCC10145": {"test_system": "P. aeruginosa ATCC10145", "assay": "Minimal inhibitory concentration (MIC), broth dilution", "conditions": "Pseudomonas aeruginosa, ATCC10145"}, "E. coli": {"test_system": "E. coli", "assay": "Minimal bactericidal concentration (MBC)", "type": "cell-based", "conditions": "Escherichia coli", "procedure": "(§1) After determining the MIC for the target compounds, the minimal bactericidal concentration (MBC) for each compound that is required to kill each one of the above-mentioned microorganisms was assessed."}, "A. baumanii ATCC 19606": {"test_system": "A. baumanii ATCC 19606", "assay": "Minimal inhibitory concentration (MIC), broth dilution", "conditions": "Acinetobacter baumannii, ATCC19606"}, "E. faecalis ATCC 29212": {"test_system": "E. faecalis ATCC 29212", "assay": "Minimal inhibitory concentration (MIC), broth dilution", "conditions": "Enterococcus faecalis, ATCC29212"}, "Aciento sensitive": {"test_system": "Aciento sensitive", "assay": "Minimal bactericidal concentration (MBC)", "type": "cell-based, A. baumanii", "conditions": "Acinetobacter baumannii", "procedure": "as §1"}, "S. aureus ATCC 6538": {"test_system": "S. aureus ATCC 6538", "assay": "Minimal inhibitory concentration (MIC), broth dilution", "conditions": "Staphylococcus aureus, ATCC6538"}, "C. albicans MTCC183": {"test_system": "C. albicans MTCC183", "assay": "Minimal inhibitory concentration (MIC), broth dilution", "type": "cell-based", "conditions": "Candida albicans, MTCC183", "text": "In vitro evaluation for antifungal activities regarding target compounds (4a–j) as well as reference drug, was done against C. albicans MTCC183 through the zone inhibition technique using well diffusion agar assay in addition to MIC."}, "Acientobacter sensitive": {"test_system": "Acientobacter sensitive", "assay": "Minimal inhibitory concentration (MIC), broth dilution", "conditions": "Acinetobacter baumannii"}, "[2]": {"test_system": "E. faecalis, Acientobacter, P. auriginosa, S. aureus, S. typhi, E. coli, C. albicans", "assay": "Average MIC over the nine tested microbial species (SAR)", "type": "cell-based", "conditions": "for antimicrobial activity (SAR grading): based on MIC average values; for MIC: read-out: Average MIC", "text": "Herein, we aimed to study the structure-antimicrobial activity relationship of the newly synthesised N'-benzylidene-3,4-dimethoxybenzohydrazide derivatives based on MIC average values[51]^,[52] as represented in the supplementary data (Table SI1). Thereby, the changes in their antimicrobial potential and spectrum upon structural modifications could be unveiled, thus offering clues for structural changes that are capable of increasing the antimicrobial potential."}, "Aciento MDR": {"test_system": "Aciento MDR", "assay": "Minimal inhibitory concentration (MIC), broth dilution", "conditions": "Acinetobacter baumannii"}, "[3]": {"assay": "Cytotoxicity on cells using MTT assay", "type": "cell-based", "conditions": "African green monkey, Vero cells (normal mammalian cell line)", "procedure": "The newly synthesised compounds were looked deeply into their efficacy using in silico, in vitro, and in vivo approaches. On the other hand, the cytotoxicity assay was performed for the tested compounds using a normal mammalian Vero cell line by the MTT assay[31]^,[32].\nMoreover, the cytotoxicity values of the target compounds were determined to calculate their corresponding IC50 values through the MTT assay. The IC50 value indicates the compound’s concentration that is required to inhibit 50% of the target cells.\nThe MTT (3–(4,5-dimethylthiazol-2-yl)-2,5-diphenyltetrazolium bromide) tetrazolium reduction assay protocol was applied to determine the cytotoxicity of the target compounds (4a–j) on cells."}, "E. faecalis": {"test_system": "E. faecalis", "assay": "Minimal bactericidal concentration (MBC)", "type": "cell-based", "conditions": "Enterococcus faecalis", "procedure": "as §1"}, "S. typhi": {"test_system": "S. typhi", "assay": "Minimal bactericidal concentration (MBC)", "type": "cell-based", "conditions": "Salmonella enterica"}, "A. baumanii": {"test_system": "A. baumanii", "assay": "Minimal bactericidal concentration (MBC)", "type": "cell-based", "conditions": "Acinetobacter baumannii", "procedure": "as §1"}, "P. Auriginosa": {"test_system": "P. Auriginosa", "assay": "Minimal bactericidal concentration (MBC)", "type": "cell-based, P. aeruginosa", "conditions": "Pseudomonas aeruginosa", "procedure": "as §1"}}, "note": "Where two headings read alike, the source gives them in different places."}
{"smiles": "COc1ccc(C(=O)NN=Cc2cc(Br)cc(Br)c2O)cc1OC", "note": "[Compound 4e, N'-(3,5-dibromo-2-hydroxybenzylidene)-3,4-dimethoxybenzohydrazide]", "values": [{"measurement": "MIC", "setting": "E. coli ATCC 25922", "result": 17.1, "unit": "µM"}, {"measurement": "MIC", "setting": "[1]", "result": 68.7, "unit": "µM"}, {"measurement": "MIC", "setting": "P. aeruginosa ATCC10145", "result": 68.7, "unit": "µM"}, {"measurement": "MBC", "setting": "E. coli", "result": 68.7, "unit": "µM"}, {"measurement": "MIC", "setting": "A. baumanii ATCC 19606", "result": 34.2, "unit": "µM"}, {"measurement": "MIC", "setting": "E. faecalis ATCC 29212", "result": 137, "unit": "µM"}, {"measurement": "MBC", "setting": "Aciento sensitive", "result": 68.7, "unit": "µM"}, {"measurement": "MIC", "setting": "S. aureus ATCC 6538", "result": 34.2, "unit": "µM"}, {"measurement": "MIC", "setting": "C. albicans MTCC183; C. albicans (CA), read-out: MIC", "result": 137, "unit": "µM"}, {"measurement": "MIC", "setting": "Acientobacter sensitive", "result": 17.1, "unit": "µM"}, {"measurement": "antimicrobial activity (SAR grading)", "setting": "[2]", "result": "moderate antimicrobial activity"}, {"measurement": "MIC", "setting": "[2]", "result": 72.4, "unit": "µM"}, {"measurement": "MIC", "setting": "Aciento MDR", "result": 137, "unit": "µM"}]}
{"smiles": "COc1ccc(C(=O)NN=Cc2cc(Cl)cc(Cl)c2O)cc1OC", "note": "[Compound 4f, N'-(3,5-dichloro-2-hydroxybenzylidene)-3,4-dimethoxybenzohydrazide]", "values": [{"measurement": "MIC", "setting": "E. coli ATCC 25922", "result": 42.4, "unit": "µM"}, {"measurement": "MIC", "setting": "[1]", "result": 85, "unit": "µM"}, {"measurement": "MIC", "setting": "P. aeruginosa ATCC10145", "result": 85, "unit": "µM"}, {"measurement": "IC50", "setting": "[3]", "result": 2160, "unit": "µM"}, {"measurement": "MIC", "setting": "A. baumanii ATCC 19606", "result": 42.4, "unit": "µM"}, {"measurement": "MIC", "setting": "E. faecalis ATCC 29212", "result": 42.4, "unit": "µM"}, {"measurement": "MBC", "setting": "Aciento sensitive", "result": 85, "unit": "µM"}, {"measurement": "MIC", "setting": "S. aureus ATCC 6538", "result": 170, "unit": "µM"}, {"measurement": "MIC", "setting": "C. albicans MTCC183", "result": 85, "unit": "µM"}, {"measurement": "MIC", "setting": "Acientobacter sensitive", "result": 21.2, "unit": "µM"}, {"measurement": "antimicrobial activity (SAR grading)", "setting": "[2]", "result": "moderate antimicrobial activity"}, {"measurement": "MIC", "setting": "[2]", "result": 73.2, "unit": "µM"}, {"measurement": "MIC", "setting": "Aciento MDR", "result": 85, "unit": "µM"}]}
{"smiles": "COc1ccc(C(=O)NN=Cc2cc(C(C)(C)C)cc(C(C)(C)C)c2O)cc1OC", "note": "[Compound 4g, N'-(3,5-di-tert-butyl-2-hydroxybenzylidene)-3,4-dimethoxybenzohydrazide]", "values": [{"measurement": "MIC", "setting": "E. coli ATCC 25922", "result": 75.9, "unit": "µM"}, {"measurement": "MIC", "setting": "[1]", "result": 37.8, "unit": "µM"}, {"measurement": "MIC", "setting": "P. aeruginosa ATCC10145", "result": 75.9, "unit": "µM"}, {"measurement": "MBC", "setting": "E. faecalis", "result": 75.9, "unit": "µM"}, {"measurement": "MIC", "setting": "A. baumanii ATCC 19606", "result": 75.9, "unit": "µM"}, {"measurement": "MBC", "setting": "S. typhi", "result": 75.9, "unit": "µM"}, {"measurement": "MIC", "setting": "E. faecalis ATCC 29212", "result": 18.9, "unit": "µM"}, {"measurement": "MBC", "setting": "Aciento sensitive", "result": 75.9, "unit": "µM"}, {"measurement": "MIC", "setting": "S. aureus ATCC 6538", "result": 152, "unit": "µM"}, {"measurement": "MIC", "setting": "C. albicans MTCC183", "result": 37.8, "unit": "µM"}, {"measurement": "MIC", "setting": "Acientobacter sensitive", "result": 37.8, "unit": "µM"}, {"measurement": "antimicrobial activity (SAR grading)", "setting": "[2]", "result": "moderate antimicrobial activity"}, {"measurement": "MIC", "setting": "[2]", "result": 73.7, "unit": "µM"}, {"measurement": "MIC", "setting": "Aciento MDR", "result": 152, "unit": "µM"}]}
{"smiles": "CCCCCCCCCCCCOc1ccc(C=NNC(=O)c2ccc(OC)c(OC)c2)cc1", "note": "[Compound 4j, N'-(4-(dodecyloxy)benzylidene)-3,4-dimethoxybenzohydrazide]", "values": [{"measurement": "MIC", "setting": "E. coli ATCC 25922", "result": 66.8, "unit": "µM"}, {"measurement": "MIC", "setting": "[1]", "result": 33.3, "unit": "µM"}, {"measurement": "MIC", "setting": "P. aeruginosa ATCC10145", "result": 33.3, "unit": "µM"}, {"measurement": "MBC", "setting": "E. faecalis", "result": 33.3, "unit": "µM"}, {"measurement": "MBC", "setting": "A. baumanii", "result": 66.8, "unit": "µM"}, {"measurement": "MIC", "setting": "A. baumanii ATCC 19606", "result": 16.7, "unit": "µM"}, {"measurement": "MBC", "setting": "S. typhi", "result": 66.8, "unit": "µM"}, {"measurement": "MIC", "setting": "E. faecalis ATCC 29212", "result": 16.7, "unit": "µM"}, {"measurement": "MBC", "setting": "Aciento sensitive", "result": 66.8, "unit": "µM"}, {"measurement": "MIC", "setting": "S. aureus ATCC 6538", "result": 66.8, "unit": "µM"}, {"measurement": "MIC", "setting": "C. albicans MTCC183", "result": 267, "unit": "µM"}, {"measurement": "MIC", "setting": "Acientobacter sensitive", "result": 33.3, "unit": "µM"}, {"measurement": "antimicrobial activity (SAR grading)", "setting": "[2]", "result": "moderate antimicrobial activity"}, {"measurement": "MIC", "setting": "[2]", "result": 74.2, "unit": "µM"}, {"measurement": "MIC", "setting": "Aciento MDR", "result": 134, "unit": "µM"}]}
{"smiles": "CO/N=C(\\C(=O)N[C@@H]1C(=O)N2C(C(=O)O)=C(CSc3nc(=O)c(=O)[nH]n3C)CS[C@H]12)c1csc(N)n1", "note": "[ceftriaxone, reference compound]", "values": [{"measurement": "MIC", "setting": "[1]", "result": 14.1, "unit": "µM"}, {"measurement": "MBC", "setting": "E. coli", "result": 113, "unit": "µM"}, {"measurement": "MBC", "setting": "A. baumanii", "result": 113, "unit": "µM"}, {"measurement": "MBC", "setting": "S. typhi", "result": 225, "unit": "µM"}, {"measurement": "MBC", "setting": "P. Auriginosa", "result": 225, "unit": "µM"}, {"measurement": "MBC", "setting": "Aciento sensitive", "result": 113, "unit": "µM"}, {"measurement": "MIC", "setting": "S. aureus ATCC 6538", "result": 3.52, "unit": "µM"}, {"measurement": "MIC", "setting": "Acientobacter sensitive", "result": 14.1, "unit": "µM"}]}
